In patent US8530497B2, “Crystalline salts of a potent HCV inhibitor” (Boehringer Ingelheim International GmbH, priority 2010, dated 2013):

Assays:
[1] = Intrinsic dissolution rate (Van Kel VK7000 dissolution tester, Wood's die); assay type: physicochemical; settings: for Dissolution Rate: pH 6.8 (20 mM sodium phosphate), 37° C., 100 rpm
Method: 6. Dissolution Studies Intrinsic dissolution rates were evaluated using Van Kel VK7000 dissolution tester and 400 mL dissolution bath with a rotation rate of 100 rpm at 37° C. Samples were prepared using approximately 50 mg of API in a 6 mm diameter Wood's die with compression force of 3 kN and 15 seconds dwell time by Carver press. The test was performed in 400 mL of pH 6.8 (20 mM sodium phosphate). Samples were collected at 2, 5, 10, 15, 20, 25, and 30 minutes, and the collected samples were unfiltered or filtered using […] PDVF filter. The concentrations of the drug were determined by HPLC using isocratic Method with fluorescence detection.

[2] = Dynamic Vapor Sorption (DVS) moisture gain; assay type: physicochemical; settings: through 85% RH at 25° C.; for hygroscopic properties (DVS): conditions used in the analysis
Method: 4. Dynamic Vapor Sorption Dynamic water sorption analyses were performed using Surface Measurement Systems DVS or DVS-HT, or VTI SGA-100 instruments. Sample sizes ranged from 4 mg to 13 mg. Three cycles of water sorption/desorption were run at 25° C. with change of relative humidity from 5-10% increments from 5% to 95%. The criteria for the step were weight change less than or equal to 0.002% or maximum time of 3 hours.

Structure (SMILES) | dissolution rate compared with the sodium salt ([1]; pH 6.8) | Dissolution Rate [1] [µg/min/mL] | moisture gain by Dynamic Vapor Sorption [2] [%] | hygroscopic properties (DVS) [2] | dissolution rate relative to the sodium salt or HEA ([1]; pH 6.8) [fold]
C=C[C@@H]1C[C@]1(NC(=O)[C@@H]1C[C@@H](Oc2cc(-c3csc(NC(=O)C(C)C)n3)nc3c(Br)c(OC)ccc23)CN1C(=O)[C@@H](NC(=O)OC1CCCC1)C(C)(C)C)C(=O)O [HEA] | comparable to the sodium salt | 1.1 | < 2.5 | non-hygroscopic | –
C=C[C@@H]1C[C@]1(NC(=O)[C@@H]1C[C@@H](Oc2cc(-c3csc(NC(=O)C(C)C)n3)nc3c(Br)c(OC)ccc23)CN1C(=O)[C@@H](NC(=O)OC1CCCC1)C(C)(C)C)C(=O)O [NA] | – | 1.3 | – | – | –
C=C[C@@H]1C[C@]1(NC(=O)[C@@H]1C[C@@H](Oc2cc(-c3csc(NC(=O)C(C)C)n3)nc3c(Br)c(OC)ccc23)CN1C(=O)[C@@H](NC(=O)OC1CCCC1)C(C)(C)C)C(=O)O [TH] | – | 64.4 | < 4 | non-hygroscopic or slightly hygroscopic | > 10
